# According to patent US8700113B2, “Sensor for detection of carbohydrate” (Medtronic Minimed, Inc., priority 2004, dated 2014):
# How the values were obtained:
# MBL [1] = target: T1, MBL (Homo sapiens, UniProt P11226); assay: Affinity of common carbohydrate moieties for MBL; type: binding; settings: for affinity for MBL, rank order of common carbohydrate moieties: value = moieties ranked next below (>) or above (<)
# [2] = Comparison of stability of MBL and Con A in glucose assay
# Description: Example 5 was repeated using MBL-AF594 and ConA-AF594 as lectin with 110 kDa HMCV1-dextran as analyte analogue in physiological TRIS buffer (pH 7.4, sodium, potassium and calcium present in physiological concentrations). […] Measurements were taken at 5 minute intervals using a miniaturized time resolved fluorimeter.
# MBL [3] = target: T1, MBL; settings: cited from earlier work
# T1 sequence (P11226 21-248, species assumed): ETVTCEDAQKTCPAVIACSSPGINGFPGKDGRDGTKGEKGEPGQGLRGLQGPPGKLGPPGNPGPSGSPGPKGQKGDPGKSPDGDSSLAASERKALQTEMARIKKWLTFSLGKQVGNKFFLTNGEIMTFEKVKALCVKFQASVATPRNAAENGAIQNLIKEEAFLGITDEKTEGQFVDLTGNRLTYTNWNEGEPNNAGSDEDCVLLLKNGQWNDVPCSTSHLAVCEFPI
"affinity for MBL, rank order of common carbohydrate moieties (MBL [1])",Compound,further results
> D-lyxose,O=C[C@H](O)[C@H](O)[C@H](O)CO [D-ribose],–
> D-lyxose,D-turanose,–
"> lactose, L-arabinose, D-galactose",O=C[C@@H](O)[C@@H](O)[C@H](O)CO [D-lyxose],–
> D-lyxose,OC[C@@H](O)[C@@H](O)[C@H](O)[C@@H](O)CO [D-sorbitol],–
> D-lyxose,O=C[C@@H](O)[C@H](O)[C@H](O)CO [D-arabinose],–
> D-lyxose,OC[C@H]1O[C@H](OC[C@H]2OC(O)(CO)[C@@H](O)[C@@H]2O)[C@H](O)[C@@H](O)[C@@H]1O (stereo partly drawn) [D-palatinose],–
D-lyxose,O=C[C@H](O)[C@@H](O)[C@@H](O)[C@H](O)CO [D-galactose],affinity / binding to MBL in words (MBL [1]): very low affinity
> D-lyxose,O=C(CO)[C@@H](O)[C@@H](O)[C@H](O)CO [D-tagatose],–
D-lyxose,OC[C@H]1O[C@@H](O[C@H]2[C@H](O)[C@@H](O)C(O)O[C@@H]2CO)[C@H](O)[C@@H](O)[C@H]1O (stereo partly shown) [lactose],–
> D-lyxose,O[C@H]1[C@H](O)[C@@H](O)[C@H](O)[C@@H](O)[C@H]1O [myo-inositol],–
> D-lyxose,O=C[C@H](O)[C@@H](O)[C@H](O)[C@H](O)CO [D-glucose],affinity / binding to MBL in words (MBL [1]): high affinity
D-lyxose,O=C[C@H](O)[C@@H](O)[C@@H](O)CO [L-arabinose],–

# The remaining lines, values behind:
Compound,"affinity for MBL, rank order of common carbohydrate moieties (MBL [1])",further results
OC[C@H]1O[C@H](O[C@@H]2CO[C@](O)(CO)[C@@H](O)[C@@H]2O)[C@H](O)[C@@H](O)[C@@H]1O [D-leucrose],"> myo-inositol, D-glucose, D-arabinose, D-palatinose, D-turanose, D-sorbitol, D-ribose, D-tagatose",–
O=C[C@@H](O)[C@@H](O)[C@H](O)[C@H](O)CO [D-Mannose],"> myo-inositol, D-glucose, D-arabinose, D-palatinose, D-turanose, D-sorbitol, D-ribose, D-tagatose",affinity / binding to MBL in words (MBL [1]): high affinity
C[C@H](O)[C@@H](O)[C@@H](O)[C@H](O)C=O [L-Fucose],"> myo-inositol, D-glucose, D-arabinose, D-palatinose, D-turanose, D-sorbitol, D-ribose, D-tagatose",–
OC[C@H]1O[C@@](CO)(O[C@H]2O[C@H](CO)[C@@H](O[C@H]3O[C@H](CO)[C@@H](O)[C@H](O)[C@H]3O)[C@H](O)[C@H]2O)[C@@H](O)[C@@H]1O [erlose],"> myo-inositol, D-glucose, D-arabinose, D-palatinose, D-turanose, D-sorbitol, D-ribose, D-tagatose",–
"MBL-AF594: human MBL stained with Alexa Fluor 594 succinimidyl ester, 2.3 dyes per subunit",–,"phase measurements at each glucose level over time ([2]; 110 kDa HMCV1-dextran, physiological TRIS buffer pH 7.4, glucose cycles 2.5-50 mM): constant over time"
Concanavalin A,–,"reduction in the measured phase ([2]; after 20 days, 110 kDa HMCV1-dextran, physiological TRIS buffer pH 7.4): more than 10%; time stable at body temperature ([2]; assay conditions, body temperature): less than 20 days"
CC(=O)N[C@H]1C(O)O[C@H](CO)[C@@H](O)[C@@H]1O (stereo partly drawn) [N-acetyl-D-glucosamine],"> myo-inositol, D-glucose, D-arabinose, D-palatinose, D-turanose, D-sorbitol, D-ribose, D-tagatose",affinity / binding to MBL in words (MBL [1]): high affinity
"SFGSGFGGGY [keratin peptide, peptide which mimics N-acetyl glucosamine]",–,inhibition of MBL (MBL [3]): can inhibit MBL
O=C(CO)[C@@H](O)[C@H](O)[C@H](O)CO [D-fructose],"> myo-inositol, D-glucose, D-arabinose, D-palatinose, D-turanose, D-sorbitol, D-ribose, D-tagatose",–
"MBL: collagen-like C-type collectin, human MBL",–,time stable in a glucose assay ([2]; glucose assay): at least 17 days
CC(=O)N[C@@H]1C(O)O[C@H](CO)[C@@H](O)[C@@H]1O (stereo partly drawn) [N-acetyl-D-mannosamine],"> myo-inositol, D-glucose, D-arabinose, D-palatinose, D-turanose, D-sorbitol, D-ribose, D-tagatose",–
